Source: ChEMBL document CHEMBL3045727, “Synthesis of some new thiazolopyrane and thiazolopyranopyrimidine derivatives bearing a sulfonamide moiety for evaluation as anticancer and radiosensitizing agents” (Med Chem Res, 2012)

Assays:
HepG2 [1] = test: Cytotoxicity against Homo sapiens (human) HepG2 cells after 48 hr followed by gamma-radiation at dose level of 8 Gy by SRB assay; assay type: functional, cell-based; details: HepG2, 48 h
HepG2 [2] = test: Cytotoxicity against Homo sapiens (human) HepG2 cells assessed as cell surviving fraction at 100 uM after 48 hr followed by gamma-radiation at dose level of 8 Gy by SRB assay; assay type: functional
HepG2 [3] = test: Cytotoxicity against Homo sapiens (human) HepG2 cells assessed as cell surviving fraction at 50 uM after 48 hr followed by gamma-radiation at dose level of 8 Gy by SRB assay; assay type: functional
HepG2 [4] = test: Cytotoxicity against Homo sapiens (human) HepG2 cells assessed as cell surviving fraction at 10 uM after 48 hr followed by gamma-radiation at dose level of 8 Gy by SRB assay; assay type: functional
HepG2 [5] = test: Cytotoxicity against Homo sapiens (human) HepG2 cells after 48 hr by SRB assay; assay type: functional, cell-based; details: HepG2, 48 h
HepG2 [6] = test: Cytotoxicity against Homo sapiens (human) HepG2 cells assessed as cell surviving fraction at 100 uM after 48 hr by SRB assay; assay type: functional
HepG2 [7] = test: Cytotoxicity against Homo sapiens (human) HepG2 cells assessed as cell surviving fraction at 50 uM after 48 hr by SRB assay; assay type: functional
HepG2 [8] = test: Cytotoxicity against Homo sapiens (human) HepG2 cells assessed as cell surviving fraction at 25 uM after 48 hr by SRB assay; assay type: functional
HepG2 [9] = test: Cytotoxicity against Homo sapiens (human) HepG2 cells assessed as cell surviving fraction at 10 uM after 48 hr by SRB assay; assay type: functional
HepG2 [10] = test: Cytotoxicity against Homo sapiens (human) HepG2 cells assessed as cell surviving fraction at 25 uM after 48 hr followed by gamma-radiation at dose level of 8 Gy by SRB assay; assay type: functional

| SMILES | IC50 (HepG2 [1]) [µM] | Ratio (HepG2 [2]) | Ratio (HepG2 [3]) | Ratio (HepG2 [4]) | IC50 (HepG2 [5]) [µM] | Ratio (HepG2 [6]) | Ratio (HepG2 [7]) | Ratio (HepG2 [8]) | Ratio (HepG2 [9]) | Ratio (HepG2 [10]) |
| --- | --- | --- | --- | --- | --- | --- | --- | --- | --- | --- |
| NS(=O)(=O)c1ccc(NC2=NC(=O)CS2)cc1 | 30 | 0.12 | 0.12 | 0.53 | 43 | 0.231 | 0.168 | 0.501 | 0.848 | 0.48 |
| N#CC1=C(N)Oc2nc(Nc3ccc(S(N)(=O)=O)cc3)sc2C1c1ccc([N+](=O)[O-])cc1 (stereo not drawn) | – | – | – | – | 60 | 0.312 | 0.376 | 0.767 | 0.846 | – |
| COc1ccc(C2C(C#N)=C(N)Oc3nc(Nc4ccc(S(N)(=O)=O)cc4)sc32)cc1OC (stereo not drawn) | – | – | – | – | – | 0.672 | 0.64 | 0.564 | 0.628 | – |
| N#CC1=C(N)Oc2nc(Nc3ccc(S(N)(=O)=O)cc3)sc2C1c1ccccc1Cl (stereo not drawn) | – | – | – | – | – | 0.655 | 0.582 | 0.861 | 0.909 | – |
| N#CC1=C(N)Oc2nc(Nc3ccc(S(N)(=O)=O)cc3)sc2C1c1cccc(Br)c1 (stereo not drawn) | – | – | – | – | 72 | 0.509 | 0.388 | 0.564 | 0.846 | – |
| Nc1ncnc2c1C(c1ccc([N+](=O)[O-])cc1)c1sc(Nc3ccc(S(N)(=O)=O)cc3)nc1O2 (stereo not drawn) | – | – | – | – | 65 | 0.489 | 0.287 | 0.605 | 0.814 | – |
| NS(=O)(=O)c1ccc(Nc2nc3c(s2)C(c2ccc([N+](=O)[O-])cc2)c2c(nc[nH]c2=O)O3)cc1 (stereo not drawn) | 18 | 0.14 | 0.12 | 0.41 | 36 | 0.015 | 0.168 | 0.498 | 0.625 | 0.22 |
| COc1ccc(C2c3sc(Nc4ccc(S(N)(=O)=O)cc4)nc3Oc3nc[nH]c(=O)c32)cc1OC (stereo not drawn) | – | – | – | – | 32 | 0.127 | 0.164 | 0.446 | 0.561 | – |
| Cc1nc2c(c(=O)[nH]1)C(c1ccc([N+](=O)[O-])cc1)c1sc(Nc3ccc(S(N)(=O)=O)cc3)nc1O2 (stereo not drawn) | – | – | – | – | 45 | 0.213 | 0.301 | 0.498 | 0.764 | – |
| COc1ccc(C2c3sc(Nc4ccc(S(N)(=O)=O)cc4)nc3Oc3nc(C)[nH]c(=O)c32)cc1OC (stereo not drawn) | 8 | 0.11 | 0.1 | 0.31 | 30 | 0.115 | 0.118 | 0.477 | 0.529 | 0.12 |
| Nc1nc(=O)[nH]c2c1C(c1ccc([N+](=O)[O-])cc1)c1sc(Nc3ccc(S(N)(=O)=O)cc3)nc1O2 (stereo not drawn) | – | – | – | – | 45 | 0.262 | 0.244 | 0.487 | 0.779 | – |
| Nc1nc(=S)[nH]c2c1C(c1ccc([N+](=O)[O-])cc1)c1sc(Nc3ccc(S(N)(=O)=O)cc3)nc1O2 (stereo not drawn) | – | – | – | – | 39 | 0.246 | 0.284 | 0.432 | 0.615 | – |
| N#CC1=C(N2C(=O)CCC2=O)Oc2nc(Nc3ccc(S(N)(=O)=O)cc3)sc2C1c1ccc([N+](=O)[O-])cc1 (stereo not drawn) | – | – | – | – | 45 | 0.231 | 0.342 | 0.474 | 0.71 | – |
| N#CC1=C(NC(=O)CCC(=O)O)Oc2nc(Nc3ccc(S(N)(=O)=O)cc3)sc2C1c1ccc([N+](=O)[O-])cc1 (stereo not drawn) | 15 | 0.13 | 0.11 | 0.36 | 32 | 0.166 | 0.127 | 0.382 | 0.626 | 0.23 |
| CC(=O)CC(=O)NC1=C(C#N)C(c2ccc([N+](=O)[O-])cc2)c2sc(Nc3ccc(S(N)(=O)=O)cc3)nc2O1 (stereo not drawn) | – | – | – | – | 37 | 0.299 | 0.206 | 0.456 | 0.546 | – |
| COc1ccc(C2c3sc(Nc4ccc(S(N)(=O)=O)cc4)nc3Oc3[nH]c(=S)n(-c4ccccc4)c(=N)c32)cc1OC (stereo not drawn) | 17 | 0.13 | 0.12 | 0.4 | 31 | 0.137 | 0.128 | 0.434 | 0.593 | 0.21 |
| COc1cccc2c1C(=O)c1c(O)c3c(c(O)c1C2=O)C[C@@](O)(C(=O)CO)C[C@@H]3O[C@H]1C[C@H](N)[C@H](O)[C@H](C)O1 [DOXORUBICIN] | – | – | – | – | 32 | 0.125 | 0.122 | 0.479 | 0.537 | – |
